What all share (type): biochemical
The target in assay [1] is T1, yeast (Y. lipolytica) complex I (Yarrowia lipolytica, UniProt Q9B6E8+Q9UUT7+Q9UUU1).
T1 sequence (Q9B6E8 1-341): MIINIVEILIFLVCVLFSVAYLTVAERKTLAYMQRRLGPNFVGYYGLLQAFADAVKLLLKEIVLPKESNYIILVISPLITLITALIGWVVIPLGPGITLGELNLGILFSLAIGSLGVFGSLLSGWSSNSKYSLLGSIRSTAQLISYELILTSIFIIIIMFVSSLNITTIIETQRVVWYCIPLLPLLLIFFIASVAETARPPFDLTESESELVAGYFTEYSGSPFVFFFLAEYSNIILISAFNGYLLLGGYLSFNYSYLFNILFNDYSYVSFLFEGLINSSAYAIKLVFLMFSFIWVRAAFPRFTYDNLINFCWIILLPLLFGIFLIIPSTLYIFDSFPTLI
T1 sequence (Q9UUU1 22-466): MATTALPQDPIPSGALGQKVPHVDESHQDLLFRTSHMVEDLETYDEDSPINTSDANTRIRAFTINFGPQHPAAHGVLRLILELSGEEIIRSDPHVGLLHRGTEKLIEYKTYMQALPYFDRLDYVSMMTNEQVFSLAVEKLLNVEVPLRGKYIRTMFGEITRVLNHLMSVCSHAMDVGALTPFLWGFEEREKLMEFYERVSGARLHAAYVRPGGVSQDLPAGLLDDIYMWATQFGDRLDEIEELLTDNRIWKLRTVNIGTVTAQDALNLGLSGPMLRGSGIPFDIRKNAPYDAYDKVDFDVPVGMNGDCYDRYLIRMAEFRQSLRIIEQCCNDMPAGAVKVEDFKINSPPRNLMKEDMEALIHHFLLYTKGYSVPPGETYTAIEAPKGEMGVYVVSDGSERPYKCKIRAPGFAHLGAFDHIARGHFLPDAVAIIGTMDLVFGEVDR
T1 sequence (Q9UUT7 28-210): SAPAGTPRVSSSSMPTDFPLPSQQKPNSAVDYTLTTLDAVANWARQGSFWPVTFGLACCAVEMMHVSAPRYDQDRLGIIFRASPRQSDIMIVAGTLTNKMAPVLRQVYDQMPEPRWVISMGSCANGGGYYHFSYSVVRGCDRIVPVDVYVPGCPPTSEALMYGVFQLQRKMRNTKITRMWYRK
Nature of the assay: NADH:decylubiquinone oxidoreduction by purified Y. lipolytica complex I. As to the method: (§1) All catalytic activity assays were conducted at 32°C in 96-well plates using a Molecular Devices Spectramax 384 plus plate reader. Catalysis was initiated by addition of 200 μM NADH and monitored at 340 and 380 nm (ε340–380 = 4.81 mM^−1 cm^−1). Linear rates were measured for all assays, inhibitors were added from dimethyl sulfoxide stock solutions as required, and inhibitor-insensitive rates (using either 1 μM piericidin A or 1.4 μM IACS-2858) were subtracted from each measured rate. Membrane samples were prepared as described previously ([17], [20], [59], [60]), diluted to 20 μg ml^−1 in 10 mM tris-SO4 (pH 7.5) and 250 mM sucrose, and supplemented with 3 μM horse heart cytochrome c (except for P. denitrificans, for which the activity is unaffected by the addition). Mouse, bovine, and yeast (Y. lipolytica) complex I were purified as described previously ([17], [20], [59]); diluted to 0.5 nM in 20 mM tris-HCl (pH 7.5), 0.15% asolectin, and 0.15% CHAPS; and assayed using either 200 μM dQ or 200 μM ubiquinone-1 (Sigma-Aldrich). Complex I was purified from P. denitrificans strain Pd1222 ([61]) and provided by O. D. Jarman (MRC Mitochondrial Biology Unit, University of Cambridge); it was assayed likewise but in 10 mM MES-HCl (pH 6.5), 25 mM NaCl, and 2 mM CaCl2. […]

For assay [2], the target named is T2, mouse complex I (Mus musculus, UniProt P03888+Q91WD5+Q9DC70).
T2 construct: from tissue; host or cells: mouse (C57BL/6) heart mitochondria
Nature of the assay: NADH:decylubiquinone oxidoreduction by purified mouse complex I. Conditions: purified mouse complex I ~0.5 nM, 200 μM dQ, 200 μM NADH, 32°C; Hill slope constrained to −1; ± SE. Here is the method: All catalytic activity assays were conducted at 32°C in 96-well plates using a Molecular Devices Spectramax 384 plus plate reader. Catalysis was initiated by addition of 200 μM NADH and monitored at 340 and 380 nm (ε340–380 = 4.81 mM^−1 cm^−1). Linear rates were measured for all assays, inhibitors were added from dimethyl sulfoxide stock solutions as required, and inhibitor-insensitive rates (using either 1 μM piericidin A or 1.4 μM IACS-2858) were subtracted from each measured rate. Membrane samples were prepared as described previously ([17], [20], [59], [60]), diluted to 20 μg ml^−1 in 10 mM tris-SO4 (pH 7.5) and 250 mM sucrose, and supplemented with 3 μM horse heart cytochrome c (except for P. denitrificans, for which the activity is unaffected by the addition). Mouse, bovine, and yeast (Y. lipolytica) complex I were purified as described previously ([17], [20], [59]); diluted to 0.5 nM in 20 mM tris-HCl (pH 7.5), 0.15% asolectin, and 0.15% CHAPS; and assayed using either 200 μM dQ or 200 μM ubiquinone-1 (Sigma-Aldrich). Complex I was purified from P. denitrificans strain Pd1222 ([61]) and provided by O. D. Jarman (MRC Mitochondrial Biology Unit, University of Cambridge); it was assayed likewise but in 10 mM MES-HCl (pH 6.5), 25 mM NaCl, and 2 mM CaCl2. Bovine SMPs were prepared as described previously ([61]) and diluted to 20 μg ml^−1 in 10 mM tris-SO4 (pH 7.5) and 250 mM sucrose for FET and RET assays. The RET assay was initiated using 1 mM NAD^+, 1 mM ATP, 10 mM succinate, 1 mM cyanide, and 2 mM MgSO4, in the absence of NADH. AOX from Trypanosoma brucei brucei was prepared as described previously ([23]). Complex I proteoliposomes were assayed using 10 mM Mops-KOH (pH 7.5), 50 mM KCl, and AOX (10 μg ml^−1).

Assay [3] has as its target T3, P. denitrificans complex I (Paracoccus denitrificans, UniProt P29916+P29918+P29920).
T3 construct: Complex I was purified from P. denitrificans strain Pd1222; endogenous in cells; host or cells: P. denitrificans strain Pd1222
Nature of the assay: NADH:decylubiquinone oxidoreduction by purified P. denitrificans complex I. The following applies: dQ, pH 6.5. Here is the method:
as §1

Assay [4] deals with complex I. Nature of the assay: NADH:ubiquinone-1 oxidoreduction in the presence of inhibitor. The following applies: 200 μM ubiquinone-1. As to the method: as §1

What is called IC50 is the concentration that inhibits the measured activity by half. Low readings indicate higher potency, high ones lower potency.

For `CS(=O)(=O)C1CCN(c2cccc(Cn3cc(-c4nc(-c5ccc(OC(F)(F)F)cc5)no4)ccc3=O)c2)CC1` [IACS-2858, 1-(3-(4-(Methylsulfonyl)piperidin-1-yl)benzyl)-5-(3-(4-(trifluoromethoxy)phenyl)-1,2,4-oxadiazol-5-yl)pyridin-2(1H)-one], the IC50 in assay [1] is 358 ± 37 nM; in assay [2] it was 2.8 nM; in assay [3] it was ~110000 nM. For the same compound, the “reduction of ubiquinone-1 in the presence of the inhibitor” value in assay [4] is on record as “No activity was observed”.

Values taken from paper PMC8121435, “Cork-in-bottle mechanism of inhibitor binding to mammalian complex I” (Science Advances, 2021).
